Assay results from patent publication US20250179059A1 (The Regents of the University of California, priority 2021, published 2025).
Where two headings read alike, the source gives them in different places.

Legend:
[1] = tested on: human SKM-1 acute myeloid leukemia cells; experiment: SKM-1 antiproliferation cell-based assay (ATPlite); conditions: Homo sapiens
Outline: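 Log-phase cells in RPMI 1640/15% FBS were seeded at 34722 cells/mL and exposed for 4 days to nine-concentration DMSO serial dilutions in triplicate. Viability was read as ATP luminescence (ATPlite 1step), and IC50 values came from variable-slope non-linear regression.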

[2] = target: T1, human BRD4 bromodomain II (Homo sapiens, UniProt O60885); experiment: Bromodomain binding assay (AlphaScreen), BRD4 BDII
T1 construct: human BRD4 bromodomain II [based on Genbank NM_058243, residues 349-460]; host or cells: E. coli
Outline: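 Compounds (10-point, 3-fold series) were preincubated 30 min at room temperature with E. coli-expressed N-terminal His6-tagged BRD4 BDII (residues 349-460) or BDI (residues 44-170) in 50 mM HEPES pH 7.5, 100 mM NaCl, 0.05% CHAPS, 0.1% BSA, 1% DMSO. Displacement of biotinylated tetra-acetylated H4 1-21 peptide was read by AlphaScreen; IC50 from curve fitting.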

[3] = SKM-1, 96 h, SKM-1 antiproliferation assay, 4 days, Table C2
[4] = AlphaScreen assay, Table C2, read-out: BRD4 BDII IC50
[5] = SKM-1, SKM-1 antiproliferation assay
[6] = BRD4 BDII AlphaScreen assay, read-out: BRD4 BD2 IC50

GI50 [1, 3] | IC50 [2, 4] | GI50 [1, 5] | IC50 [2, 6] | SMILES
0.3 to 30 nM | 1 to 10 nM | – | – | CSc1ncc(-c2cc(F)cc(-c3ccc(-n4ccn(C)c4=O)c(Cl)c3)c2O)cc1N1CCN(C(C)C)CC1 [Example 817, 1-(3-chloro-5′-fluoro-2′-hydroxy-3′-(5-(4-isopropylpiperazin-1-yl)-6-(methylthio)pyridin-3-yl)-[1,1′-biphenyl]-4-yl)-3-methyl-1H-imidazol-2(3H)-one]
– | – | 300 to 3000 nM | 10 to 100 nM | Cn1ccn(-c2ccc(-c3cc(F)cc(-c4cccc(-c5cccc(CN)c5)c4)c3O)cc2Cl)c1=O [Example 866]
30 to 300 nM | 1 to 10 nM | – | – | CN1CCN(c2ccc(-c3cc(F)cc(-c4cc(N5CCC[C@H](N)C5)c(=O)n(C)c4)c3O)cc2Cl)C1=O [Example 378, (S)-3-(3-aminopiperidin-1-yl)-5-(3′-chloro-5-fluoro-2-hydroxy-4′-(3-methyl-2-oxoimidazolidin-1-yl)-[1,1′-biphenyl]-3-yl)-1-methylpyridin-2(1H)-one]
– | – | 0.3 to 30 nM | 1 to 10 nM | [2H]C([2H])([2H])n1ccn(-c2ccc(-c3cc(F)cc(-c4cnc(OC)c(N5CCN(C(C)(C)C)CC5)c4)c3O)cc2Cl)c1=O [Example 938, 1-(3′-(5-(4-(tert-butyl)piperazin-1-yl)-6-methoxypyridin-3-yl)-3-chloro-5′-fluoro-2′-hydroxy-[1,1′-biphenyl]-4-yl)-3-(methyl-d3)-1,3-dihydro-2H-imidazol-2-one]
30 to 300 nM | 1 to 10 nM | – | – | Cn1ccn(-c2ccc(-c3cc(F)cc(-c4ccnc(N5CCN(C67CC(C6)C7)CC5)c4)c3O)cc2Cl)c1=O [Example 662, 1-(3′-(2-(4-(bicyclo[1.1.1]pentan-1-yl)piperazin-1-yl)pyridin-4-yl)-3-chloro-5′-fluoro-2′-hydroxy-[1,1′-biphenyl]-4-yl)-3-methyl-1H-imidazol-2(3H)-one]
0.3 to 30 nM | 0.01 to 1 nM | – | – | Cn1ccn(-c2ccc(-c3cc(F)cc(-c4cc(F)cc(N5CCNCC5)c4)c3O)cc2Cl)c1=O [Example 706, 1-(3-chloro-3″,5′-difluoro-2′-hydroxy-5″-(piperazin-1-yl)-[1,1′:3,1″-terphenyl]-4-yl)-3-methyl-1H-imidazol-2(3H)-one]
0.3 to 30 nM | 0.01 to 1 nM | – | – | CN1CCCC12CCN(c1cncc(-c3cc(F)cc(-c4ccc(-n5ccn(C)c5=O)c(Cl)c4)c3O)c1)C2 (stereo not shown) [Example 700, 1-(3-chloro-5′-fluoro-2′-hydroxy-3′-(5-(1-methyl-1,7-diazaspiro[4.4]nonan-7-yl)pyridin-3-yl)-[1,1′-biphenyl]-4-yl)-3-methyl-1H-imidazol-2(3H)-one]
30 to 300 nM | 1 to 10 nM | – | – | COCCOc1ncc(-c2cc(F)cc(-c3ccc(N4CCN(C)C4=O)c(Cl)c3)c2O)cc1N1CCNCC1 [Example 393, 1-(3-chloro-5′-fluoro-2′-hydroxy-3′-(6-(2-methoxyethoxy)-5-(piperazin-1-yl)pyridin-3-yl)-[1,1′-biphenyl]-4-yl)-3-methylimidazolidin-2-one]
30 to 300 nM | 0.01 to 1 nM | – | – | Cn1ccn(-c2ccc(-c3cc(F)cc(-c4ccnc(N5CCN(CCCN)CC5)c4)c3O)cc2Cl)c1=O [Example 620, 1-(3′-(2-(4-(3-aminopropyl)piperazin-1-yl)pyridin-4-yl)-3-chloro-5′-fluoro-2′-hydroxy-[1,1′-biphenyl]-4-yl)-3-methyl-1H-imidazol-2(3H)-one]
0.3 to 30 nM | 0.01 to 1 nM | – | – | C[C@@H]1CN(c2cc(-c3cc(F)cc(-c4ccc(-n5ccn(C)c5=O)c(Cl)c4)c3O)cn3ncnc23)CCN1 [Example 602, (R)-1-(3-chloro-5′-fluoro-2′-hydroxy-3′-(8-(3-methylpiperazin-1-yl)-[1,2,4]triazolo[1,5-a]pyridin-6-yl)-[1,1′-biphenyl]-4-yl)-3-methyl-1H-imidazol-2(3H)-one]
0.3 to 30 nM | 1 to 10 nM | – | – | C[C@@H]1CN(c2cc(-c3cc(Cl)cc(-c4ccc(-n5ccn(C)c5=O)c(Cl)c4)c3O)ccn2)CCN1 [Example 540, (R)-1-(3,5′-dichloro-2′-hydroxy-3′-(2-(3-methylpiperazin-1-yl)pyridin-4-yl)-[1,1′-biphenyl]-4-yl)-3-methyl-1H-imidazol-2(3H)-one]
300 to 3000 nM | 10 to 100 nM | – | – | CN1CCN(c2ccc(-c3cc(F)cc(-c4ccnc(N5CC6(CNC6)C5)c4)c3O)cc2Cl)C1=O [Example 352, 1-(3′-(2-(2,6-diazaspiro[3.3]heptan-2-yl)pyridin-4-yl)-3-chloro-5′-fluoro-2′-hydroxy-[1,1′-biphenyl]-4-yl)-3-methylimidazolidin-2-one]
30 to 300 nM | 10 to 100 nM | – | – | Cc1ccc(S(=O)(=O)n2ccc3c(N4CCN[C@H](C)C4)cc(-c4cc(F)cc(-c5ccc(-n6ccn(C)c6=O)c(Cl)c5)c4O)cc32)cc1 [Example 608, (R)-1-(3-chloro-5′-fluoro-2′-hydroxy-3′-(4-(3-methylpiperazin-1-yl)-1-tosyl-1H-indol-6-yl)-[1,1′-biphenyl]-4-yl)-3-methyl-1H-imidazol-2(3H)-one]
30 to 300 nM | 0.01 to 1 nM | – | – | Cn1ccn(-c2ccc(-c3cc(F)cc(-c4ccnc(N5CCC(N)CC5)c4)c3O)cc2Cl)c1=O [Example 414, 1-(3′-(2-(4-aminopiperidin-1-yl)pyridin-4-yl)-3-chloro-5′-fluoro-2′-hydroxy-[1,1′-biphenyl]-4-yl)-3-methyl-1H-imidazol-2(3H)-one]
0.3 to 30 nM | 1 to 10 nM | – | – | CC(=O)Nc1cc(-c2cccc(-c3ccc(N4CCN(C)C4=O)c(Cl)c3)c2O)cc(N2CCNCC2)n1 [Example 383, N-(4-(3′-chloro-2-hydroxy-4′-(3-methyl-2-oxoimidazolidin-1-yl)-[1,1′-biphenyl]-3-yl)-6-(piperazin-1-yl)pyridin-2-yl)acetamide]
30 to 300 nM | 10 to 100 nM | – | – | CC(=O)Nc1ccc(-c2cccc(-c3ccnc(N4CC[C@@H](O)C4)c3)c2O)cc1F [Example 251, (R)-N-(3-fluoro-2′-hydroxy-3′-(2-(3-hydroxypyrrolidin-1-yl)pyridin-4-yl)-[1,1′-biphenyl]-4-yl)acetamide]
30 to 300 nM | 1 to 10 nM | – | – | Cn1ccn(-c2ccc(-c3cc(F)cc(-c4ccnc(N5CC[C@H](N)C5)c4)c3N)cc2Cl)c1=O [Example 541, (S)-1-(2′-amino-3′-(2-(3-aminopyrrolidin-1-yl)pyridin-4-yl)-3-chloro-5′-fluoro-[1,1′-biphenyl]-4-yl)-3-methyl-1H-imidazol-2(3H)-one]
– | – | 300 to 3000 nM | > 100 nM | Cn1ccn(-c2c(Cl)cc(-c3cc(F)cc(-c4cccc(N5CCN(C(C)(C)C)CC5)c4)c3O)cc2OC2CC2)c1=O [Example 930, 1-(3″-(4-(tert-butyl)piperazin-1-yl)-3-chloro-5-cyclopropoxy-5′-fluoro-2′-hydroxy-[1,1′:3′,1″-terphenyl]-4-yl)-3-methyl-1H-imidazol-2(3H)-one]
0.3 to 30 nM | 0.01 to 1 nM | – | – | C[C@@H]1CN(c2cc(-c3cc(F)cc(-c4ccc(-n5ccn(C)c5=O)c(Cl)c4)c3O)cc3c2ncn3C)CCN1 [Example 576]
300 to 3000 nM | 1 to 10 nM | – | – | CN1CCN(c2ccc(-c3cc(F)cc(-c4cnc(-c5cn[nH]c5)c(N5CCNCC5)c4)c3O)cc2Cl)C1=O [Example 390, 1-(3-chloro-5′-fluoro-2′-hydroxy-3′-(5-(piperazin-1-yl)-6-(1H-pyrazol-4-yl)pyridin-3-yl)-[1,1′-biphenyl]-4-yl)-3-methylimidazolidin-2-one]
